Laboratory results taken from ChEMBL document CHEMBL1140847, “Spectroscopic and calorimetric studies on the DNA recognition of pyrrolo[2,1-c][1,4]benzodiazepine hybrids” (Bioorg Med Chem, 2009).
Activity calls are given as the source filed them. The rule behind the calls is not given here.

Key:
[1] = Binding affinity to oligonucleotide duplex DNA D2a at drug-duplex molar ratio of 2:1 assessed as change in melting temperature by UV melting experiment
[2] = Binding affinity to oligonucleotide duplex DNA D2c at drug-duplex molar ratio of 2:1 assessed as change in melting temperature by UV melting experiment
[3] = Binding affinity to oligonucleotide duplex DNA D2b at drug-duplex molar ratio of 2:1 assessed as change in melting temperature by UV melting experiment
[4] = Binding affinity to oligonucleotide duplex DNA D6 at drug-duplex molar ratio of 2:1 assessed as change in melting temperature by UV melting experiment
[5] = Binding affinity to oligonucleotide hairpin duplex DNA D2d by fluorescence titration experiment
[6] = Binding affinity to oligonucleotide duplex DNA D1 at drug-duplex molar ratio of 2:1 assessed as change in melting temperature by UV melting experiment
[7] = Binding affinity to oligonucleotide duplex DNA D2a at 10 uM by circular dichroism
[8] = Binding affinity to oligonucleotide duplex DNA D7 at drug-duplex molar ratio of 2:1 assessed as change in melting temperature by UV melting experiment
[9] = Binding affinity to oligonucleotide hairpin duplex DNA D2d at 26 uM by UV titration experiment
[10] = Binding affinity to oligonucleotide hairpin duplex DNA D2d by isothermal titration calorimetry
[11] = Binding affinity to oligonucleotide duplex DNA D2e at drug-duplex molar ratio of 2:1 assessed as change in melting temperature by UV melting experiment
[12] = Binding affinity to oligonucleotide duplex DNA D4 at drug-duplex molar ratio of 2:1 assessed as change in melting temperature by UV melting experiment
[13] = Binding affinity to oligonucleotide duplex DNA D5 at drug-duplex molar ratio of 2:1 assessed as change in melting temperature by UV melting experiment
[14] = Binding affinity to oligonucleotide duplex DNA D8 at drug-duplex molar ratio of 2:1 assessed as change in melting temperature by UV melting experiment
[15] = Binding affinity to oligonucleotide duplex DNA D3 at drug-duplex molar ratio of 2:1 assessed as change in melting temperature by UV melting experiment
[16] = Binding affinity to oligonucleotide duplex DNA D2a at 6.6 uM by circular dichroism

| ΔTm [15] | Activity [16] | SMILES | ΔTm [1] | ΔTm [2] | ΔTm [3] | ΔTm [4] | Ka [5] | ΔTm [6] | Activity [7] | ΔTm [8] | Activity [9] | Ka [10] | ΔTm [11] | ΔTm [12] | ΔTm [13] | ΔTm [14] |
| --- | --- | --- | --- | --- | --- | --- | --- | --- | --- | --- | --- | --- | --- | --- | --- | --- |
| – | – | COc1cc2c(cc1OCCCOc1ccc(-c3nc4ccc(N5CCN(C)CC5)cc4[nH]3)cc1)N=C[C@@H]1CCCN1C2=O | 33 °C | 9 °C | 39 °C | 34.5 °C | 5.6 ×10⁶ /M | 10 °C | Active | 27 °C | Active | 8.9 ×10⁵ /M | 37 °C | 34.3 °C | 32.5 °C | 0 °C |
| 39.5 °C | Active | COc1cc2c(cc1OCCCN1CCN(CCN3C(=O)c4cccc5cccc(c45)C3=O)CC1)N=C[C@@H]1CCCN1C2=O | 34 °C | 6.5 °C | 34.3 °C | 37.3 °C | 3.8 ×10⁶ /M | 9 °C | – | 31.5 °C | Active | 7.8 ×10⁵ /M | 35 °C | 36.8 °C | 30.3 °C | 35 °C |
